# Source: ChEMBL document CHEMBL1201861, “Genomics of Drug Sensitity in Cancer screening data, Wellcome Trust Sanger Institute”
# Columns and labels:
# Experiment in all cases: cells
# NCI-H1355 = assay type: functional, cell-based, Homo sapiens; conditions: Homo sapiens, NCI-H1355;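 further: growth inhibition of human NCI-H1355 cells, read out by a cell viability assay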
# JVM-3 = assay type: functional, cell-based, Homo sapiens; conditions: Homo sapiens, JVM-3;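 further: growth inhibition of human JVM-3 cells, read out with a cell viability assay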
# NCI-H1299 = assay type: functional, cell-based; conditions: Homo sapiens;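 further: growth inhibition of human NCI-H1299 cells, read out by a cell viability assay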
# COLO-320-HSR = assay type: functional, cell-based, Homo sapiens; conditions: Homo sapiens, COLO-320-HSR;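 further: growth inhibition of COLO-320-HSR cells, determined with a cell viability assay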
# LS-1034 = assay type: functional, cell-based, Homo sapiens; conditions: Homo sapiens, LS-1034
# NEC8 = assay type: functional, cell-based, Homo sapiens; conditions: Homo sapiens, NEC8;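 further: growth inhibition of human NEC8 cells, read out by a cell viability assay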
# DSH1 = assay type: functional, cell-based; conditions: Homo sapiens;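 further: growth inhibition of human DSH1 cells, measured with a cell viability readout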
# CCRF-CEM = assay type: functional, cell-based, Homo sapiens; conditions: Homo sapiens, CCRF-CEM;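 further: inhibition of CCRF-CEM cell growth, measured by a cell viability assay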
# LB2518-MEL = assay type: functional, cell-based; conditions: Homo sapiens;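 further: growth inhibition of human LB2518-MEL cells, measured with a cell viability assay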
# SNU-C2B = assay type: functional, cell-based; conditions: Homo sapiens;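 further: cell viability readout used to measure compound-driven suppression of SNU-C2B cell proliferation, IC50 marking half-maximal growth inhibition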
# NOMO-1 = assay type: functional, cell-based, Homo sapiens; conditions: Homo sapiens, NOMO-1;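 further: growth inhibition of human NOMO-1 cells measured by a cell viability assay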
# NMC-G1 = assay type: functional, cell-based, Homo sapiens; conditions: Homo sapiens, NMC-G1;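 further: growth inhibition of the NMC-G1 cell line, measured with a cell viability read-out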
# HOP-62 = assay type: functional, cell-based, Homo sapiens; conditions: Homo sapiens, HOP-62;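 further: cell growth inhibition determined with a viability assay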
# D-247MG = assay type: functional, cell-based; conditions: Homo sapiens
# TGW = assay type: functional, cell-based, Homo sapiens; conditions: Homo sapiens, TGW;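 further: growth inhibition of human TGW cells, read out with a cell viability assay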
# JAR = assay type: functional, cell-based, Homo sapiens; conditions: Homo sapiens, JAR;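 further: growth inhibition of human JAR cells determined with a cell viability assay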
# MS-1 = assay type: functional, cell-based, Homo sapiens; conditions: Homo sapiens, MS-1
# SK-N-DZ = assay type: functional, cell-based, Homo sapiens; conditions: Homo sapiens, SK-N-DZ; read-out: IC50;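 further: growth inhibition of the cancer cell line, read out through a viability assay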
# BE-13 = assay type: functional, cell-based, Homo sapiens; conditions: Homo sapiens, BE-13;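 further: growth inhibition of human BE-13 cells, measured with a cell viability assay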
# SHP77 = assay type: functional, cell-based, Homo sapiens, SHP-77; conditions: Homo sapiens, SHP77;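 further: growth inhibition of human SHP-77 cells measured by a cell viability assay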
# RPMI-8226 = assay type: functional, cell-based, Homo sapiens; conditions: Homo sapiens, RPMI-8226
# A3-KAW = assay type: functional, cell-based, Homo sapiens; conditions: Homo sapiens, A3-KAW;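 further: growth inhibition of human A3-KAW cells, read out with a cell viability assay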
# MZ1-PC = assay type: functional, cell-based, Homo sapiens; conditions: Homo sapiens, MZ1-PC;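 further: cell viability assay measuring growth inhibition of human MZ1-PC cells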
# ES1 = assay type: functional, cell-based, Homo sapiens; conditions: Homo sapiens, ES1;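 further: growth inhibition of ES1 cells, read out with a cell viability assay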
# SF-126 = assay type: functional, cell-based, Homo sapiens; conditions: Homo sapiens, SF-126;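 further: growth inhibition of human SF126 cells, read out with a cell viability assay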
# SW 962 = assay type: functional, cell-based, Homo sapiens; conditions: Homo sapiens, SW 962;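 further: growth inhibition of human SW962 cells, read out by a cell viability assay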
# SK-N-FI = assay type: functional, cell-based, Homo sapiens; conditions: Homo sapiens, SK-N-FI;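 further: cell viability assay measuring growth inhibition of human SK-N-FI cells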
# RPMI-8866 = assay type: functional, cell-based, Homo sapiens; conditions: Homo sapiens, RPMI-8866
# AM-38 = assay type: functional, cell-based, Homo sapiens; conditions: Homo sapiens, AM-38;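 further: growth inhibition of AM-38 cells of human origin, read out by a cell viability assay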
# TE-8 = assay type: functional, cell-based, Homo sapiens; conditions: Homo sapiens, TE-8;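 further: growth inhibition of TE-8 cells, measured with a cell viability readout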
# EOL1 = assay type: functional, cell-based, Homo sapiens; conditions: Homo sapiens, EOL1;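 further: growth inhibition of EoL-1 cells, read out by a cell viability assay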
# 8-MG-BA = assay type: functional, cell-based, Homo sapiens; conditions: Homo sapiens, 8-MG-BA;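 further: growth inhibition of 8-MG-BA cells, read out with a cell viability assay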
# HEL = assay type: functional, cell-based, Homo sapiens; conditions: Homo sapiens, HEL;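 further: growth inhibition of HEL cells, read out with a cell viability assay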
# OCUB-M = assay type: functional, cell-based; conditions: Homo sapiens;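 further: growth inhibition of the cancer cell line, read out through a cell viability assay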
# NB13 = assay type: functional, cell-based, Homo sapiens; conditions: Homo sapiens, NB13;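 further: cell viability readout measuring growth inhibition of human NB13 cells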
# NCI-H1648 = assay type: functional, cell-based, Homo sapiens; conditions: Homo sapiens, NCI-H1648;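 further: cell viability assay measuring inhibition of NCI-H1648 cell growth, from the Sanger screening data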
# KGN = assay type: functional, cell-based, Homo sapiens; conditions: Homo sapiens, KGN;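 further: growth inhibition of KGN cells, read out with a cell viability assay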
# LU-139 = assay type: functional, cell-based, Homo sapiens; conditions: Homo sapiens, LU-139
# BT-474 = assay type: functional, cell-based, Homo sapiens; conditions: Homo sapiens, BT-474
# SW982 = assay type: functional, cell-based; conditions: Homo sapiens;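 further: growth inhibition of SW982 cells, read out with a cell viability assay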
# MV4-11 = assay type: functional, cell-based, Homo sapiens, MV-4-11; conditions: Homo sapiens, MV4-11;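 further: cell viability readout measuring growth inhibition of human MV-4-11 cells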
# HCE-4 = assay type: functional, cell-based; conditions: Homo sapiens;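 further: cell viability assay measuring inhibition of growth in the human HCE-4 cell line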
# TE-9 = assay type: functional, cell-based, Homo sapiens; conditions: Homo sapiens, TE-9;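 further: cell growth inhibition, measured with a cell viability readout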
# SK-LMS-1 = assay type: functional, cell-based, Homo sapiens; conditions: Homo sapiens, SK-LMS-1;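 further: growth inhibition of human SK-LMS-1 cells, read out with a cell viability assay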
# NCI-H69 = assay type: functional, cell-based, Homo sapiens; conditions: Homo sapiens, NCI-H69;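 further: growth inhibition of the cell line, read out with a cell viability assay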
# NTERA-2-cl-D1 = assay type: functional, cell-based, Homo sapiens; conditions: Homo sapiens, NTERA-2-cl-D1;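 further: inhibition of cell growth, measured with a cell viability assay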
# D283 Med = assay type: functional, cell-based, Homo sapiens; conditions: Homo sapiens, D283 Med
# NB69 = assay type: functional, cell-based, Homo sapiens; conditions: Homo sapiens, NB69;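 further: growth inhibition of NB69 cells, determined by a cell viability assay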
# SK-MEL-1 = assay type: functional, cell-based, Homo sapiens; conditions: Homo sapiens, SK-MEL-1;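 further: growth inhibition of human SK-MEL-1 cells, read out by a cell viability assay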
# A388 = assay type: functional, cell-based; conditions: Homo sapiens;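 further: growth inhibition of human A388 cells, read out with a cell viability assay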
# RH-1 = assay type: functional, cell-based, Homo sapiens; conditions: Homo sapiens, RH-1;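 further: growth inhibition of human RH-1 cells, read out with a cell viability assay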
smiles,measurement,setting,value
Cc1ccc(-n2nc(C(C)(C)C)cc2NC(=O)Nc2ccc(OCCN3CCOCC3)c3ccccc23)cc1 [DORAMAPIMOD],IC50,NCI-H1355,> 10 µM
same,IC50,JVM-3,> 10 µM
same,IC50,NCI-H1299,> 10 µM
same,IC50,COLO-320-HSR,> 10 µM
same,IC50,LS-1034,> 10 µM
same,IC50,NEC8,> 10 µM
same,IC50,DSH1,> 10 µM
same,IC50,CCRF-CEM,> 10 µM
same,IC50,LB2518-MEL,> 10 µM
same,IC50,SNU-C2B,> 10 µM
same,IC50,NOMO-1,> 10 µM
same,IC50,NMC-G1,> 10 µM
same,IC50,HOP-62,> 10 µM
same,IC50,D-247MG,> 10 µM
same,IC50,TGW,> 10 µM
same,IC50,JAR,> 10 µM
same,IC50,MS-1,> 10 µM
same,IC50,SK-N-DZ,> 10 µM
same,IC50,BE-13,> 10 µM
same,IC50,SHP77,> 10 µM
same,IC50,RPMI-8226,> 10 µM
same,IC50,A3-KAW,> 10 µM
same,IC50,MZ1-PC,> 10 µM
same,IC50,ES1,> 10 µM
same,IC50,SF-126,> 10 µM
same,IC50,SW 962,> 10 µM
same,IC50,SK-N-FI,> 10 µM
same,IC50,RPMI-8866,> 10 µM
same,IC50,AM-38,> 10 µM
same,IC50,TE-8,> 10 µM
same,IC50,EOL1,0.348 µM
same,IC50,8-MG-BA,> 10 µM
same,IC50,HEL,> 10 µM
same,IC50,OCUB-M,> 10 µM
same,IC50,NB13,> 10 µM
same,IC50,NCI-H1648,> 10 µM
same,IC50,KGN,> 10 µM
same,IC50,LU-139,> 10 µM
same,IC50,BT-474,> 10 µM
same,IC50,SW982,> 10 µM
same,IC50,MV4-11,> 10 µM
same,IC50,HCE-4,> 10 µM
same,IC50,TE-9,> 10 µM
same,IC50,SK-LMS-1,> 10 µM
same,IC50,NCI-H69,> 10 µM
same,IC50,NTERA-2-cl-D1,> 10 µM
same,IC50,D283 Med,> 10 µM
same,IC50,NB69,> 10 µM
same,IC50,SK-MEL-1,> 10 µM
same,IC50,A388,> 10 µM
same,IC50,RH-1,> 10 µM
Cc1ccc(C(=O)Nc2ccc(CN3CCN(C)CC3)c(C(F)(F)F)c2)cc1C#Cc1cnc2cccnn12 [PONATINIB],IC50,NCI-H1355,> 0.512 µM
same,IC50,JVM-3,> 0.512 µM
same,IC50,NCI-H1299,> 0.512 µM
same,IC50,COLO-320-HSR,> 0.512 µM
same,IC50,LS-1034,> 0.512 µM
same,IC50,NEC8,> 0.512 µM
same,IC50,DSH1,> 0.512 µM
same,IC50,CCRF-CEM,> 0.512 µM
same,IC50,LB2518-MEL,> 0.512 µM
same,IC50,SNU-C2B,> 0.512 µM
same,IC50,NOMO-1,> 0.512 µM
same,IC50,NMC-G1,> 0.512 µM
same,IC50,HOP-62,0.361 µM
same,IC50,D-247MG,> 0.512 µM
same,IC50,TGW,> 0.512 µM
same,IC50,JAR,> 0.512 µM
same,IC50,MS-1,> 0.512 µM
same,IC50,SK-N-DZ,> 0.512 µM
same,IC50,BE-13,0.00259 µM
same,IC50,SHP77,> 0.512 µM
same,IC50,RPMI-8226,> 0.512 µM
same,IC50,A3-KAW,> 0.512 µM
same,IC50,MZ1-PC,0.113 µM
same,IC50,ES1,> 0.512 µM
same,IC50,SF-126,0.171 µM
same,IC50,SW 962,> 0.512 µM
same,IC50,SK-N-FI,> 0.512 µM
same,IC50,RPMI-8866,> 0.512 µM
same,IC50,AM-38,> 0.512 µM
same,IC50,TE-8,> 0.512 µM
same,IC50,EOL1,< 0.002 µM
same,IC50,8-MG-BA,> 0.512 µM
same,IC50,HEL,> 0.512 µM
same,IC50,OCUB-M,> 0.512 µM
same,IC50,NB13,> 0.512 µM
same,IC50,NCI-H1648,> 0.512 µM
same,IC50,KGN,> 0.512 µM
same,IC50,LU-139,> 0.512 µM
same,IC50,BT-474,> 0.512 µM
same,IC50,SW982,0.3 µM
same,IC50,MV4-11,< 0.002 µM
same,IC50,HCE-4,> 0.512 µM
same,IC50,TE-9,> 0.512 µM
same,IC50,SK-LMS-1,> 0.512 µM
same,IC50,NCI-H69,> 0.512 µM
same,IC50,NTERA-2-cl-D1,> 0.512 µM
same,IC50,D283 Med,> 0.512 µM
same,IC50,NB69,> 0.512 µM
same,IC50,SK-MEL-1,> 0.512 µM
same,IC50,A388,> 0.512 µM
same,IC50,RH-1,> 0.512 µM
COc1cc(N2CCC(N3CCN(C)CC3)CC2)ccc1Nc1ncc(Cl)c(Nc2ccccc2S(=O)(=O)C(C)C)n1 [TAE-684],IC50,NCI-H1355,0.552 µM
same,IC50,JVM-3,> 2 µM
same,IC50,NCI-H1299,> 2 µM
same,IC50,COLO-320-HSR,0.198 µM
same,IC50,LS-1034,0.636 µM
same,IC50,NEC8,0.413 µM
same,IC50,DSH1,> 2 µM
same,IC50,CCRF-CEM,> 2 µM
same,IC50,LB2518-MEL,> 2 µM
same,IC50,SNU-C2B,> 2 µM
same,IC50,NOMO-1,> 2 µM
same,IC50,NMC-G1,0.832 µM
same,IC50,HOP-62,0.65 µM
same,IC50,D-247MG,> 2 µM
same,IC50,TGW,0.859 µM
same,IC50,JAR,> 2 µM
same,IC50,MS-1,> 2 µM
same,IC50,SK-N-DZ,1.78 µM
same,IC50,BE-13,> 2 µM
same,IC50,SHP77,> 2 µM
same,IC50,RPMI-8226,0.635 µM
same,IC50,A3-KAW,> 2 µM
same,IC50,MZ1-PC,0.178 µM
same,IC50,ES1,> 2 µM
same,IC50,SF-126,1.12 µM
same,IC50,SW 962,1.56 µM
same,IC50,SK-N-FI,> 2 µM
same,IC50,RPMI-8866,> 2 µM
same,IC50,AM-38,> 2 µM
same,IC50,TE-8,0.429 µM
same,IC50,EOL1,> 2 µM
same,IC50,8-MG-BA,> 2 µM
same,IC50,HEL,1.15 µM
same,IC50,OCUB-M,1.36 µM
same,IC50,NB13,1.37 µM
same,IC50,NCI-H1648,0.279 µM
same,IC50,KGN,0.662 µM
same,IC50,LU-139,> 2 µM
same,IC50,BT-474,> 2 µM
same,IC50,SW982,0.165 µM
same,IC50,MV4-11,0.394 µM
same,IC50,HCE-4,1.61 µM
same,IC50,TE-9,1.11 µM
same,IC50,SK-LMS-1,1.16 µM
same,IC50,NCI-H69,1.56 µM
same,IC50,NTERA-2-cl-D1,0.334 µM
same,IC50,D283 Med,1.22 µM
same,IC50,NB69,0.318 µM
same,IC50,SK-MEL-1,> 2 µM
same,IC50,A388,> 2 µM
same,IC50,RH-1,> 2 µM
